Reference: patent US20230065745A1, “PIPERIDINE-2,6-DIONE DERIVATIVES WHICH BIND TO CEREBLON, AND METHODS OF USE THEREOF” (Captor Therapeutics S.A., priority 2019, published 2023)

Assays:
IKZF1 = IKZF1 degradation assay, H929 cell line (Western blot densitometry); format: cell-based; settings: 20 μM
Protocol: Cells were seeded on 6- or 12-well plates, and the compounds to be tested were added at the desired concentration range. […] After 6 or 24 h incubation (3TC, 5% CO2), cells were harvested, washed and cell lysates were prepared using RIPA lysis buffer. The amount of protein was determined via BCA assay, and the appropriate quantity was then loaded on the precast gel for the protein separation. After primary and secondary Ab staining, the membranes were washed and signals developed. The densitometry analysis was implemented to obtain the numeric values used later in the protein level evaluation process. […] The treatment with all compounds was carried out for 24 h.

[1] = molecular target: CRBN-DDB1 protein complex (Homo sapiens, UniProt Q96SW2); experiment: Fluorescence Polarization (FP) assay, displacement of Cy5-labelled thalidomide; settings: 25 nM CRBN-DDB1, 5 nM Cy5-labelled thalidomide, read-out: CRBN binding Ki
Protocol: CRBN-DDB1 protein complex was mixed with Cy5-labelled thalidomide and a compound to be tested (the “test compound”). […] The test solution was added to a 384-well assay plate.
The plate was spun-down (1 min, 1000 rpm, 22° C.) and then shaken using a VibroTurbulator for 10 min at room temperature (20-25° C.), with the frequency set to level 3. The assay plate with protein and the tracer was incubated for 60 min at room temperature (20-25° C.) prior to read-out with a plate reader.
The FP experiment was carried out with various concentrations of the test compounds in order to measure Ki values.

CRBN-DDB1 protein complex, sequence (Q96SW2 whole entry): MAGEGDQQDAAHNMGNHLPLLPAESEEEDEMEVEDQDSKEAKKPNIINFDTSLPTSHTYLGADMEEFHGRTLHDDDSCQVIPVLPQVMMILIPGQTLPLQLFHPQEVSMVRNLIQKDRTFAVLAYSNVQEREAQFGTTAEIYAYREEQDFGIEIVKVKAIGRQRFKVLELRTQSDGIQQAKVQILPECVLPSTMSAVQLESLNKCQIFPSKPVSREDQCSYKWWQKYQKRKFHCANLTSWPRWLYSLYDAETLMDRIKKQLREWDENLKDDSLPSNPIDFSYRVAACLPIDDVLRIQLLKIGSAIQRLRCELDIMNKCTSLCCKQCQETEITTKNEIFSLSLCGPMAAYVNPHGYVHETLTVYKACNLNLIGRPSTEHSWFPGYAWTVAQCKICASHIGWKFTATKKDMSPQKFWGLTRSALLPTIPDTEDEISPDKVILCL
CRBN-DDB1 protein complex, sequence (Q16531 whole entry partner): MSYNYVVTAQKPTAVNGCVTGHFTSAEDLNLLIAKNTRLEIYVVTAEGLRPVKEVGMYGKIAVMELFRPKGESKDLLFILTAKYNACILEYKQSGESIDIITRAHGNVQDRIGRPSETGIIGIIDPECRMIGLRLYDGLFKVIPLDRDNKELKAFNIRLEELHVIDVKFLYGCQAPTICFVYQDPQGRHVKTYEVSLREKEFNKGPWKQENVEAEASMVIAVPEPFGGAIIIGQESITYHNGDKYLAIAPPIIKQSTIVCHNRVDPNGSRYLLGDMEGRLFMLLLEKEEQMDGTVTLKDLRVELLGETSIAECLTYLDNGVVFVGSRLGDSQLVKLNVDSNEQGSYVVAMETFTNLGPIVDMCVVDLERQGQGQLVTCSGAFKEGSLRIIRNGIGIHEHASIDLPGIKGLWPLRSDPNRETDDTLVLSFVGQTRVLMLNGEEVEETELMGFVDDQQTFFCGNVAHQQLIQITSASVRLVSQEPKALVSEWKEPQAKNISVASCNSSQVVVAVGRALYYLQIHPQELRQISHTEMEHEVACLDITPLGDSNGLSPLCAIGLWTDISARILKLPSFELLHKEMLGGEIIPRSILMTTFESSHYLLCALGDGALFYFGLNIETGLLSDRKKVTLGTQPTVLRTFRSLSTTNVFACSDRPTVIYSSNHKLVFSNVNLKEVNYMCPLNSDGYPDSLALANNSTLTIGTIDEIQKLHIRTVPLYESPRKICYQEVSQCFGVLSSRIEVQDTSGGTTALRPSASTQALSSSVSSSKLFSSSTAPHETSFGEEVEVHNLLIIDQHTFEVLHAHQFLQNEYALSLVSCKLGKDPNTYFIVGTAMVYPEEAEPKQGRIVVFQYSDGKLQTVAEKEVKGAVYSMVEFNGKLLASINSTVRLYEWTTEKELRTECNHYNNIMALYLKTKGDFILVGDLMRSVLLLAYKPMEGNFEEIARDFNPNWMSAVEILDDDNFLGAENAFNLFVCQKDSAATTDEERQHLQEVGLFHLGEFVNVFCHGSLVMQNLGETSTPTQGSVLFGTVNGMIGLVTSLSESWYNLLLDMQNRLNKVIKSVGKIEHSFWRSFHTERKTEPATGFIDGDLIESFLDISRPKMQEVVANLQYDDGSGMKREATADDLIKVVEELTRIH

Compound	Ki [1]	% of IKZF1 protein reduction, IKZF 1 (24 H, 20 μM) (IKZF1)
CC(=O)N(C)c1sccc1C(=O)NC1CCC(=O)NC1=O (stereo not shown) [Compound 2, N-(2,6-dioxopiperidin-3-yl)-2-(N-methylacetamido)thiophene-3-carboxamide]	–	≤25% (≤25% for 0-25% of IKZF1 protein reduction)
CC(=O)Nc1cc(Cl)sc1C(=O)NC1CCC(=O)NC1=O (stereo not shown) [Compound 18, 5-chloro-N-(2,6-dioxopiperidin-3-yl)-3-acetamidothiophene-2-carboxamide]	10 to 50 µM	≤25% (≤25% for 0-25% of IKZF1 protein reduction)
C[C@H](O)C(=O)Nc1sc(Cl)cc1C(=O)NC1CCC(=O)NC1=O (stereo partly drawn) [Compound 17, 5-chloro-N-(2,6-dioxopiperidin-3-yl)-2-[(2S)-2-hydroxypropanamido]thiophene-3-carboxamide]	10 to 50 µM	≤25% (≤25% for 0-25% of IKZF1 protein reduction)
CC(=O)Nc1sc2c(c1C(=O)NC1CCC(=O)NC1=O)CCCC2 (stereo not shown) [Compound 105, N-(2,6-dioxopiperidin-3-yl)-2-acetamido-4,5,6,7-tetrahydro-1-benzothiophene-3-carboxamide]	–	≤25% (≤25% for 0-25% of IKZF1 protein reduction)
O=C1CCC(NC(=O)c2cnc(C(F)(F)F)s2)C(=O)N1 (stereo not shown) [Compound 72, N-(2,6-dioxopiperidin-3-yl)-2-(trifluoromethyl)thiazole-5-carboxamide]	–	≤25% (≤25% for 0-25% of IKZF1 protein reduction)
O=C1CCC(NC(=O)c2cnc(CNC(=O)OCc3ccccc3)s2)C(=O)N1 (stereo not shown) [Compound 74, benzyl ((5-((2,6-dioxopiperidin-3-yl)carbamoyl)thiazol-2-yl)methyl)carbamate]	10 to 50 µM	≤25% (≤25% for 0-25% of IKZF1 protein reduction)
CC(=O)Nc1sccc1C(=O)N(C)C1CCC(=O)NC1=O (stereo not shown) [Compound 5, N-(2,6-dioxopiperidin-3-yl)-2-acetamido-N-methylthiophene-3-carboxamide]	10 to 50 µM	≤25% (≤25% for 0-25% of IKZF1 protein reduction)
CSc1ncc(C(=O)NC2CCC(=O)NC2=O)s1 (stereo not shown) [Compound 76, N-(2,6-dioxopiperidin-3-yl)-2-(methylthio)thiazole-5-carboxamide]	10 to 50 µM	≤25% (≤25% for 0-25% of IKZF1 protein reduction)
CC(=O)Nc1scc(Cl)c1C(=O)NC1CCC(=O)NC1=O (stereo not shown) [Compound 43, 4-chloro-N-(2,6-dioxopiperidin-3-yl)-2-acetamidothiophene-3-carboxamide]	10 to 50 µM	≤25% (≤25% for 0-25% of IKZF1 protein reduction)
O=C1CCC(NC(=O)c2cc(Cl)sc2NC(=O)c2ccccc2)C(=O)N1 (stereo not shown) [Compound 45, 2-benzamido-5-chloro-N-(2,6-dioxopiperidin-3-yl)thiophene-3-carboxamide]	–	>25% (>25% for 26-74% of IKZF1 protein reduction)
Cn1cc(C(=O)NC2CCC(=O)NC2=O)c2cccnc21 (stereo not shown) [Compound 98, N-(2,6-dioxopiperidin-3-yl)-1-methyl-1H-pyrrolo[2,3-b]pyridine-3-carboxamide]	10 to 50 µM	–
O=C1CCC(NC(=O)c2ccsc2-n2cccc2)C(=O)N1 (stereo not shown) [Compound 41, N-(2,6-dioxopiperidin-3-yl)-2-(1H-pyrrol-1-yl)thiophene-3-carboxamide]	–	≤25% (≤25% for 0-25% of IKZF1 protein reduction)
NCc1ccc(C(=O)NC2CCC(=O)NC2=O)s1 (stereo not shown) [Compound 50, 5-(aminomethyl)-N-(2,6-dioxopiperidin-3-yl)thiophene-2-carboxamide]	10 to 50 µM	–
COc1scnc1C(=O)NC1CCC(=O)NC1=O (stereo not shown) [Compound 79, N-(2,6-dioxopiperidin-3-yl)-5-methoxythiazole-4-carboxamide]	5 to 10 µM	–

Now from value to molecule, other results behind:

Ki [1]	Compound	% of IKZF1 protein reduction, IKZF 1 (24 H, 20 μM) (IKZF1)
5 to 10 µM	CC(=O)Nc1sc(C(F)(F)F)cc1C(=O)NC1CCC(=O)NC1=O (stereo not shown) [Compound 42, N-(2,6-dioxopiperidin-3-yl)-2-acetamido-5-(trifluoromethyl)thiophene-3-carboxamide]	≤25% (≤25% for 0-25% of IKZF1 protein reduction)
5 to 10 µM	CC(=O)Nc1sc(Cl)cc1C(=O)NC1CCC(=O)NC1=O (stereo not shown) [Compound 12, 5-Chloro-N-(2,6-dioxopiperidin-3-yl)-2-acetamidothiophene-3-carboxamide]	≤25% (≤25% for 0-25% of IKZF1 protein reduction)
< 5 µM	O=C1CCC(NC(=O)c2cc(Cl)sc2NC(=O)C2CC2)C(=O)N1 (stereo not shown) [Compound 6, 5-chloro-2-cyclopropaneamido-N-(2,6-dioxopiperidin-3-yl)thiophene-3-carboxamide]	≤25% (≤25% for 0-25% of IKZF1 protein reduction)
< 5 µM	Nc1sc(Cl)cc1C(=O)NC1CCC(=O)NC1=O (stereo not shown) [Compound 40, 2-amino-5-chloro-N-(2,6-dioxopiperidin-3-yl)thiophene-3-carboxamide]	≤25% (≤25% for 0-25% of IKZF1 protein reduction)
< 5 µM	COc1sc(Cl)cc1C(=O)NC1CCC(=O)NC1=O (stereo not shown) [Compound 37, 5-chloro-N-(2,6-dioxopiperidin-3-yl)-2-methoxythiophene-3-carboxamide]	≤25% (≤25% for 0-25% of IKZF1 protein reduction)
5 to 10 µM	CS(=O)(=O)Nc1sccc1C(=O)NC1CCC(=O)NC1=O (stereo not shown) [Compound 13, N-(2,6-dioxopiperidin-3-yl)-2-methanesulfonamidothiophene-3-carboxamide]	≤25% (≤25% for 0-25% of IKZF1 protein reduction)
< 5 µM	CC(=O)Nc1sc(C2CC2)cc1C(=O)NC1CCC(=O)NC1=O (stereo not shown) [Compound 44, 5-cyclopropyl-N-(2,6-dioxopiperidin-3-yl)-2-acetamidothiophene-3-carboxamide]	≤25% (≤25% for 0-25% of IKZF1 protein reduction)
< 5 µM	O=C1CCC(NC(=O)c2csc(-c3ccccc3)c2)C(=O)N1 (stereo not shown) [Compound 57, N-(2,6-dioxopiperidin-3-yl)-5-phenylthiophene-3-carboxamide]	≤25% (≤25% for 0-25% of IKZF1 protein reduction)
< 5 µM	CNc1sc(Cl)cc1C(=O)NC1CCC(=O)NC1=O (stereo not shown) [Compound 16, 5-chloro-N-(2,6-dioxopiperidin-3-yl)-2-(methylamino)thiophene-3-carboxamide]	≤25% (≤25% for 0-25% of IKZF1 protein reduction)
5 to 10 µM	CC(=O)Nc1sc(C2CC2)c(Cl)c1C(=O)NC1CCC(=O)NC1=O (stereo not shown) [Compound 19, 4-chloro-5-cyclopropyl-N-(2,6-dioxopiperidin-3-yl)-2-acetamidothiophene-3-carboxamide]	≤25% (≤25% for 0-25% of IKZF1 protein reduction)
5 to 10 µM	O=C1CCC(NC(=O)c2cc(Cl)sc2NC(=O)Cc2ccccc2)C(=O)N1 (stereo not shown) [Compound 46, 5-chloro-N-(2,6-dioxopiperidin-3-yl)-2-(2-phenylacetamido)thiophene-3-carboxamide]	≤25% (≤25% for 0-25% of IKZF1 protein reduction)
< 5 µM	CCCCC(=O)Nc1sc(Cl)cc1C(=O)NC1CCC(=O)NC1=O (stereo not shown) [Compound 3, 5-chloro-N-(2,6-dioxopiperidin-3-yl)-2-pentanamidothiophene-3-carboxamide]	≤25% (≤25% for 0-25% of IKZF1 protein reduction)
< 5 µM	Nc1sccc1C(=O)NC1CCC(=O)NC1=O (stereo not shown) [Compound 36, 2-amino-N-(2,6-dioxopiperidin-3-yl)thiophene-3-carboxamide]	≤25% (≤25% for 0-25% of IKZF1 protein reduction)
5 to 10 µM	CC(=O)Nc1ccsc1C(=O)NC1CCC(=O)NC1=O (stereo not shown) [Compound 7, N-(2,6-dioxopiperidin-3-yl)-3-acetamidothiophene-2-carboxamide]	≤25% (≤25% for 0-25% of IKZF1 protein reduction)
< 5 µM	COc1sc(N)nc1C(=O)NC1CCC(=O)NC1=O (stereo not shown) [Compound 80, 2-amino-N-(2,6-dioxopiperidin-3-yl)-5-methoxythiazole-4-carboxamide]	–
5 to 10 µM	COc1csc(NC(C)=O)c1C(=O)NC1CCC(=O)NC1=O (stereo not shown) [Compound 8, N-(2,6-dioxopiperidin-3-yl)-2-acetamido-4-methoxythiophene-3-carboxamide]	≤25% (≤25% for 0-25% of IKZF1 protein reduction)
< 5 µM	CCOc1sccc1C(=O)NC1CCC(=O)NC1=O (stereo not shown) [Compound 28, N-(2,6-dioxopiperidin-3-yl)-2-ethoxythiophene-3-carboxamide]	–
5 to 10 µM	CC(C)(C)OC(=O)NCc1nc(C(=O)NC2CCC(=O)NC2=O)cs1 (stereo not shown) [Compound 77, tert-butyl ((4-((2,6-dioxopiperidin-3-yl)carbamoyl)thiazol-2-yl)methyl)carbamate]	–
< 5 µM	O=C1CCC(NC(=O)c2cc(O)cs2)C(=O)N1 (stereo not shown) [Compound 53, N-(2,6-dioxopiperidin-3-yl)-4-hydroxythiophene-2-carboxamide]	–
< 5 µM	COc1sc(Br)cc1C(=O)NC1CCC(=O)NC1=O (stereo not shown) [Compound 34, 5-bromo-N-(2,6-dioxopiperidin-3-yl)-2methoxythiophene-3-carboxamide]	–
